Reference: patent US20240216330A1, “COMBINATION TREATMENT METHODS OF MULTIPLE SCLEROSIS” (BIOGEN MA INC., priority 2021, published 2024)
Where a name gives a salt, the structure may show the parent alone. Marks after values point to notes of the source that are not given here.

Columns and labels:
[1] = tested on: B cell-dependent experimental autoimmune encephalomyelitis (EAE); experiment: Prophylactic B cell-dependent EAE, murine model of multiple sclerosis (hMOG1-125 immunization); assay type: in vivo, C57BL/6 mice; details: BIIB091 50 mpk and/or DRF 90 mpk p.o. BID; for End score +/- SD: EAE score scale 0 to 5, end of study Day 28; for MMS +/- SD (mean maximum score): EAE score scale 0 to 5; for MMS +/- SD (mean maximum score) / EAE incidence / Median day of onset (all mice): Day 0 to Day 27; for End % body weight +/- SD: end of study Day 28; for EAE incidence / Median day of onset (all mice): female C57BL/6 mice; for EAE incidence: 20 animals per group; for Median day of onset (all mice): study end Day 28
Text: The goal of the study is to compare efficacy of diroximel fumarate (Vumerity) alone, BIIB091 alone, and the combination diroximel fumarate and BIIB091 in B cell-dependent experimental autoimmune encephalomyelitis (EAE). B cells are required for experimental autoimmune encephalomyelitis (EAE) induced by immunization of female C57BL/6J mice with full length recombinant human myelin oligodendrocyte glycoprotein (MOG) hMOG1-125 in adjuvant (Oliver, A. R. et al. “Rat and human myelin oligodendrocyte glycoproteins induce experimental autoimmune encephalomyelitis by different mechanisms in C57BL/6 mice.” J Immunol (2003). 171(1): 462-468; Lyons, J. et al “B cells are critical to induction of experimental allergic encephalomyelitis by protein but not by a short encephalitogenic peptide”. Eur. J. Immunol. (1999), 29: 3432-3439). [table] Female mice at 9-13 weeks of age (age-matched within one week) were ordered from Taconic Biosciences and given standard water and chow ad libitum throughout the duration of the experiment. Mice were acclimated to the […] for at least 7 days prior to the start of the study. EAE was induced in all mice as follows: [table] Mice were injected subcutaneously at 2 sites in the back with the emulsion component (containing MOG1-125) of Hooke KitTM MOG1-125/CFA Emulsion PTX, catalog number EK-2160 (Hooke Laboratories, Lawrence MA). The first site of injection was in the upper back, approximately 1 cm caudal of the neck line. The second site was in the lower back, approximately 2 cm cranial of the base of the tail. The injection volume was 0.1 mL at each site. Within 2 hours of the injection of emulsion, and then again 24 hours after the injection of emulsion, the pertussis toxin component of the kit was administered intraperitoneally. Mice were assigned to groups in a balanced manner to achieve similar average weight across the groups at the start of the study (Day-1). Dosing volume of all treatments was 5 mL/kg. Both treatment compounds were formulated in the same vehicle: (0.5% HPMC E50 premium LV/0.2% Tween 20 pH 4 (50 mM Citrate Buffer) [table] Dosing of all mice started on Day 0 and continued through Day 27. Dosing for each treatment was at the same time (+/-1 hour) each dosing day. There were at least 30 and not more than 90 minutes between administration of Treatments 1 and 2. There were no less than 10 and no more than 14 hours between doses of the same article Readouts are EAE scores and body weight. Body weight were measured 3 times/week (Monday, Wednesday, Friday; weighing may be delayed 1 day if these fall on a major US holiday), starting on Day-1. Animals were scored daily starting from Day 7. All readouts continued until termination of the study. Scoring was performed blind, by a person unaware both of treatment and of previous scores for each mouse. EAE was scored on the scale of 0 to 5 according to scoring criteria in Table 3 below: [table] In-between scores were assigned when the clinical signs fall between two above defined scores. b. Statistical Analysis Hooke's standard statistical analysis for EAE studies was applied, according to Table 4 below. [table]

[2] = tested on: BCR-mediated CD69 upregulation on CD19+ B cells; experiment: CD69 assay in whole blood stimulated with anti-human IgD; assay type: cell-based; details: 30 minutes pre-incubation at 37° C., overnight anti-IgD stimulation
[3] = tested on: MRL/LPR mice (autoimmune disease resembling systemic lupus erythematosus); experiment: MRL/LPR mice model of lupus; assay type: in vivo; details: female MRL/LPR mice, oral BID for 11 weeks from 9 weeks of age; BIIB091 50 mg/kg, DRF 90 mg/kg
Text: MRL/MpJ-Fas^lppr/J (MRL-lpr) (hereinafter MRL/LPR mice) mice develop an autoimmune disease resembling systemic lupus erythematosus (SLE). These mice have a severe disease progression involving anti-DNA antibodies, fatal glomerulonephritis, vasculitis, skin lesions, lymphadenopathy and splenomegaly. The causative mutation in this strain of mice is a loss of function in the death receptor Fas and disease onset is accelerated in female mice as compared to males. For this reason, female mice were chosen for these experiments.
Female MRL/LPR mice were ordered from the Jackson laboratory and all experiments were conducted a Boulder Biopath.
Female mice were dosed orally beginning at 9 weeks of age with BIIB091 alone, DRF alone, BIIB091 and DRF in combination or the vehicle control twice daily (BID) for 11 weeks. BIIB091 was dosed at 50 mg/kg, while DRF was dosed at 90 mg/kg, respectively. Cyclophosphamide (CPA) was used as a positive control in the study and was administered through intraperitoneal injection (IP) once daily at 15 mg/kg. […]
The following serum cytokines and chemokines were assessed using Luminex assays: IL-1B, IL-2, IL-4, IL-5, IL-6, IL-10, IL-12, IL-13, IL-15, IL-17A, IL-17E, IL-17F, IL-21, IL-22, IL-23, IL-27, IL-28B, IL-31 and IL-33; sCD40L, GM-CSF, IFNγ, MIP-3α, TNFα and TNFβ. […]

[4] = cited from earlier work

| SMILES | End score +/- SD [1] | MMS +/- SD (mean maximum score) [1] | End % body weight +/- SD [1] | EAE incidence [1] [%^a] | Median day of onset (all mice) [1] | Inhibition of BCR-mediated CD69 upregulation ([2]; whole blood samples from MS patients not on treatment or treated with non-DMF DMTs) | Inhibition of BCR-mediated CD69 upregulation ([2]; whole blood samples from MS patients treated with DMF) | Efficacy in mice model of lupus [3] | MMF exposure ([4]; DRF 462 mg dose taken orally versus DMF 240 mg dose taken orally) | GI tolerability ([4]; compared to DMF) |
| --- | --- | --- | --- | --- | --- | --- | --- | --- | --- | --- |
| Cn1cc(Nc2nccc(-c3ccc4c(c3)CN(C3COC3)CC[C@H]4NC(=O)c3cn(C(C)(C)C)nn3)n2)cn1 [BIIB091, (R)-1-(tert-butyl)-N-(8-(2-((1-methyl-1H-pyrazol-4-yl)amino)pyrimidin-4-yl)-2-(oxetan-3-yl)-2,3,4,5-tetrahydro-1H-benzo[c]azepin-5-yl)-1H-1,2,3-triazole-4-carboxamide] | 0.60 +/− 0.88^a | 1.13 +/− 1.38^a | 102.8% +/− 8.3%^a | 45.0 | >28.0^a* day | inhibited | inhibited | efficacious | – | – |
| COC(=O)/C=C/C(=O)OCCN1C(=O)CCC1=O [DRF, diroximel fumarate] | 1.00 +/− 1.19^a | 1.45 +/− 1.52^a | 98.2% +/− 8.3% | 50.0 | >28.0^a* day | – | – | did not show efficacy | comparable to that of the DMF 240 mg dose | improved GI tolerability compared to DMF |
